Reference: patent publication US20240122182A1, “PESTICIDALLY ACTIVE HETEROCYCLIC DERIVATIVES WITH SULFUR CONTAINING SUBSTITUENTS” (SYNGENTA CROP PROTECTION AG, priority 2021, published 2024)

What was measured:
Assay type in all cases: in vivo
[1] = system: Nilaparvata lugens (Brown Plant Hopper); experiment: Activity against Nilaparvata lugens (brown plant hopper), larvicide, systemic into water; conditions: 168 h, application rate of 12.5 ppm, N3 nymphs, 7 days after infestation
Procedure: Larvicide, systemic into water Rice plants cultivated in a nutritive solution were treated with the diluted test solutions into nourishing cultivation system. 1 day after application plants were infested with ˜20 N3 nymphs. 7 days after infestation samples were assessed for mortality and growth regulation.

[2] = system: Tetranychus urticae (Two-Spotted Spider Mite); experiment: Activity against Tetranychus urticae (two-spotted spider mite), bean leaf discs sprayed; conditions: foliar, 192 h
Procedure: Bean leaf discs on agar in 24-well microtiter plates were sprayed with aqueous test solutions prepared from 10′000 ppm DMSO stock solutions. After drying the leaf discs were infested with a mite population of mixed ages. The samples were assessed for mortality on mixed population (mobile stages) 8 days after infestation.

[3] = system: Carpocapsa (Cydia) Pomonella (Codling Moth); experiment: Activity against Carpocapsa (Cydia) pomonella (codling moth), larvicide, feeding/contact; conditions: 336 h, application rate of 12.5 ppm, L1 larvae, 14 days after infestation, read-out: effect in at least one of the two categories (mortality or growth inhibition)
[4] = system: Plutella xylostella (Diamond Back Moth); experiment: Activity against Plutella xylostella (diamond back moth), artificial diet; conditions: 192 h, application rate of 200 ppm, eggs, 8 days after infestation, read-out: effect in at least one of the two categories (mortality or growth inhibition)
Procedure: 24-well microtiter plates with artificial diet were treated with aqueous test solutions prepared from 10′000 ppm DMSO stock solutions by pipetting. After drying, Plutella eggs were pipetted through a plastic stencil onto a gel blotting paper and the plate was closed with it. The samples were assessed for mortality and growth inhibition in comparison to untreated samples 8 days after infestation.

[5] = system: Diabrotica Balteata (Corn Root Worm); experiment: Activity against Diabrotica balteata (corn root worm), maize sprouts sprayed; conditions: 96 h, application rate of 200 ppm, L2 larvae, 4 days after infestation, read-out: effect in at least one of the two categories (mortality or growth inhibition)
In short: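 Maize sprouts on agar were sprayed with aqueous test solutions made from 10′000 ppm DMSO stocks, dried, then infested with 6 to 10 L2 larvae per well. Mortality and growth inhibition were scored against untreated samples 4 days after infestation.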

[6] = system: Euschistus heros (Neotropical Brown Stink Bug); experiment: Activity against Euschistus heros (neotropical brown stink bug), soybean leaves sprayed; conditions: 120 h, application rate of 200 ppm, N2 nymphs, 5 days after infestation, read-out: effect in at least one of the two categories (mortality or growth inhibition)
Procedure: Soybean leaves on agar in 24-well microtiter plates were sprayed with aqueous test solutions prepared from 10′000 ppm DMSO stock solutions. After drying the leaves were infested with N2 nymphs. The samples were assessed for mortality and growth inhibition in comparison to untreated samples 5 days after infestation.

[7] = system: Chilo suppressalis (Striped Rice Stemborer); experiment: Activity against Chilo suppressalis (striped rice stemborer), artificial diet; conditions: 144 h, application rate of 200 ppm, L2 larvae, 6 days after infestation, read-out: control (mortality, anti-feeding effect, growth inhibition)
In short: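 Artificial diet treated with aqueous dilutions of DMSO stocks (10'000 ppm stock), dried, then infested with 6-8 L2 larvae per well. Mortality, anti-feeding and growth inhibition scored against untreated samples 6 days after infestation. Control counted when any category exceeds untreated.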

[8] = system: Spodoptera littoralis (Egyptian Cotton Leaf Worm); experiment: Activity against Spodoptera littoralis (Egyptian cotton leaf worm), cotton leaf discs sprayed; conditions: foliar, 72 h, application rate of 200 ppm, L1 larvae, 3 days after infestation, read-out: control (mortality, anti-feeding effect, growth inhibition)
In short: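 Five L1 larvae per sprayed, dried cotton leaf disc on agar. Activity is counted when mortality, anti-feedant effect or growth inhibition exceeds the untreated sample at day 3.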

[9] = system: Myzus persicae (Green Peach Aphid); experiment: Activity against Myzus persicae (green peach aphid), systemic activity; conditions: 144 h, test rate of 24 ppm, pea seedling roots in test solution, 6 days
Procedure: Roots of pea seedlings infested with an aphid population of mixed ages were placed directly into aqueous test solutions prepared from 10′000 DMSO stock solutions. The samples were assessed for mortality 6 days after placing seedlings into test solutions.

[10] = system: Myzus persicae (Green Peach Aphid); experiment: Activity against Myzus persicae (green peach aphid), feeding/contact activity; conditions: 144 h, application rate of 200 ppm, mixed ages, 6 days after infestation
Procedure: Sunflower leaf discs were placed onto agar in a 24-well microtiter plate and sprayed with aqueous test solutions prepared from 10′000 ppm DMSO stock solutions. After drying, the leaf discs were infested with an aphid population of mixed ages. The samples were assessed for mortality 6 days after infestation.

[11] = system: Bemisia tabaci (Cotton White Fly); experiment: Activity against Bemisia tabaci (cotton white fly), cotton leaf discs sprayed; conditions: foliar, 144 h, application rate of 200 ppm, adult white flies, 6 days after incubation
Procedure: Cotton leaf discs were placed on agar in 24-well microtiter plates and sprayed with aqueous test solutions prepared from 10′000 ppm DMSO stock solutions. After drying the leaf discs were infested with adult white flies. The samples were checked for mortality 6 days after incubation.

[12] = system: Frankliniella occidentalis (Western Flower Thrips); experiment: Activity against Frankliniella occidentalis (western flower thrips), sunflower leaf discs sprayed; conditions: foliar, 168 h, application rate of 200 ppm, population of mixed ages, 7 days after infestation
Procedure: Sunflower leaf discs were placed on agar in 24-well microtiter plates and sprayed with aqueous test solutions prepared from […] stock solutions. After drying the leaf discs were infested with a Frankliniella population of mixed ages. The samples were assessed for mortality 7 days after infestation.

CCS(=O)(=O)c1cc(C(C)(C)F)cnc1-c1cc2c(cn1)N(CC(F)(F)C(F)(F)F)C(=O)CC2 [P23, 6-[3-ethylsulfonyl-5-(1-fluoro-1-methyl-ethyl)-2-pyridyl]-1-(2,2,3,3,3-pentafluoropropyl)-3,4-dihydro-1,7-naphthyridin-2-one]
≥ 80%: mortality at 12.5 ppm [1] | mortality at 200 ppm [2] | percent effect (mortality or growth inhibition) at 12.5 ppm [3] | percent effect (mortality or growth inhibition) at 200 ppm [4] | percent effect (mortality or growth inhibition) at 200 ppm [5] | percent effect (mortality or growth inhibition) at 200 ppm [6] | mortality at 200 ppm [7] | mortality at 200 ppm [8]

CCS(=O)(=O)c1cc(C2(C#N)CC2)cnc1-c1cc2c(cn1)N(CC(F)(F)C(F)(F)F)C(=O)CC2 [P12, 1-[5-ethylsulfonyl-6-[2-oxo-1-(2,2,3,3,3-pentafluoropropyl)-3,4-dihydro-1,7-naphthyridin-6-yl]-3-pyridyl]cyclopropanecarbonitrile]
≥ 80%: mortality at 12.5 ppm [1] | percent effect (mortality or growth inhibition) at 12.5 ppm [3] | percent effect (mortality or growth inhibition) at 200 ppm [4] | percent effect (mortality or growth inhibition) at 200 ppm [5] | percent effect (mortality or growth inhibition) at 200 ppm [6] | mortality at 24 ppm [9] | mortality at 200 ppm [7] | mortality at 200 ppm [10] | mortality at 200 ppm [8] | mortality at 200 ppm [11]

CCSc1cc(C2(C#N)CC2)cnc1-c1cc2c(cn1)N(CC(F)(F)C(F)(F)F)C(=O)OC2 [P4, 1-[5-ethylsulfanyl-6-[2-oxo-1-(2,2,3,3,3-pentafluoropropyl)-4H-pyrido[3,4-d][1,3]oxazin-6-yl]-3-pyridyl]cyclopropanecarbonitrile]
≥ 80%: mortality at 200 ppm [12] | percent effect (mortality or growth inhibition) at 200 ppm [4] | percent effect (mortality or growth inhibition) at 200 ppm [5] | percent effect (mortality or growth inhibition) at 200 ppm [6] | mortality at 200 ppm [7] | mortality at 200 ppm [10] | mortality at 200 ppm [8]

CCS(=O)(=O)c1cc(C(C)(C)C#N)cnc1-c1cc2c(cn1)N(CC(F)(F)C(F)(F)F)C(=O)CC2 [P11, 2-[5-ethylsulfonyl-6-[2-oxo-1-(2,2,3,3,3-pentafluoropropyl)-3,4-dihydro-1,7-naphthyridin-6-yl]-3-pyridyl]-2-methyl-propanenitrile]
≥ 80%: mortality at 12.5 ppm [1] | percent effect (mortality or growth inhibition) at 12.5 ppm [3] | percent effect (mortality or growth inhibition) at 200 ppm [4] | percent effect (mortality or growth inhibition) at 200 ppm [5] | percent effect (mortality or growth inhibition) at 200 ppm [6] | mortality at 24 ppm [9] | mortality at 200 ppm [7] | mortality at 200 ppm [10] | mortality at 200 ppm [8] | mortality at 200 ppm [11]

CCS(=O)(=O)c1cc(C2(C#N)CC2)cnc1-c1cc2c(cn1)N(CC(F)(F)F)C(=O)CC2 [P2, 1-[5-ethylsulfonyl-6-[2-oxo-1-(2,2,2-trifluoroethyl)-3,4-dihydro-1,7-naphthyridin-6-yl]-3-pyridyl]cyclopropanecarbonitrile]
≥ 80%: mortality at 12.5 ppm [1] | percent effect (mortality or growth inhibition) at 12.5 ppm [3] | percent effect (mortality or growth inhibition) at 200 ppm [4] | percent effect (mortality or growth inhibition) at 200 ppm [5] | percent effect (mortality or growth inhibition) at 200 ppm [6] | mortality at 24 ppm [9] | mortality at 200 ppm [7] | mortality at 200 ppm [10] | mortality at 200 ppm [8] | mortality at 200 ppm [11]
